Data published in ChEMBL document CHEMBL1201862, “PubChem BioAssay data set” (2004).
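48-hour exposure; five concentrations; linearly interpolated endpoints. Here, GI50 denotes the concentration required for 50% inhibition of growth.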 The source made the active and inactive calls. Rule as the data show it: active = GI50 up to about 1.1 µM and inactive = higher.

Legend:
Assay in all cases: growth of human tumour cells (NCI), 48 h
[1] = test system: A498
[2] = test system: ACHN
[3] = test system: SNB-78
[4] = test system: CCRF-CEM
[5] = test system: OVCAR-4
[6] = test system: HOP-92
[7] = test system: SF-295
[8] = test system: SK-MEL-28
[9] = test system: SF-539
[10] = test system: RPMI-8226
[11] = test system: SW-620
[12] = test system: HT-29
[13] = test system: XF498
[14] = test system: COLO 205
[15] = test system: SNB-19
[16] = test system: UACC-257
[17] = test system: HCC 2998
[18] = test system: HOP-62
[19] = test system: SNB-75
[20] = test system: IGROV-1
[21] = test system: RXF 393
[22] = test system: NCI-H522
[23] = test system: OVCAR-5
[24] = test system: TK-10
[25] = test system: A549
[26] = test system: NCI-H23
[27] = test system: SN12C
[28] = test system: LXFL 529
[29] = test system: DLD-1
[30] = test system: Malme-3M
[31] = test system: SK-MEL-2
[32] = test system: U-251
[33] = test system: CAKI-1
[34] = test system: SK-OV-3
[35] = test system: OVCAR-3
[36] = test system: NCI-H460
[37] = test system: EKVX
[38] = test system: 786-0
[39] = test system: M14
[40] = test system: K562
[41] = test system: M19-MEL
[42] = test system: DMS-273
[43] = test system: HL-60
[44] = test system: UACC-62
[45] = test system: UO-31
[46] = test system: KM12
[47] = test system: MOLT-4
[48] = test system: LOX IMVI
[49] = test system: SK-MEL-5
[50] = test system: OVCAR-8
[51] = test system: SF-268
[52] = test system: KM-20L2

Measured: GI50

O=C(O[C@H]1[C@@H]2C=CO[C@@H](OC3OC(CO)C(O)C(O)C3O)[C@@H]2[C@@]2(CO)O[C@@H]12)c1ccc(O)c(O)c1 (some centres not stated)
inactive: [1] > 100 µM | [2] > 100 µM | [3] > 100 µM | [4] > 100 µM | [5] > 100 µM | [6] > 100 µM | [7] > 100 µM | [8] > 100 µM | [9] > 100 µM | [10] > 100 µM | [11] > 100 µM | [12] > 100 µM | [13] 41.5 µM | [14] > 100 µM | [15] > 100 µM | [16] > 100 µM | [17] > 100 µM | [18] > 100 µM | [19] > 100 µM | [20] > 100 µM | [21] > 100 µM | [22] > 100 µM | [23] > 100 µM | [24] > 100 µM | [25] > 100 µM | [26] > 100 µM | [27] > 100 µM | [28] > 100 µM | [29] > 100 µM | [30] > 100 µM | [31] > 100 µM | [32] > 100 µM | [33] > 100 µM | [34] > 100 µM | [35] > 100 µM | [36] > 100 µM | [37] > 100 µM | [38] > 100 µM | [39] > 100 µM | [40] > 100 µM | [41] > 100 µM | [42] > 100 µM | [43] > 100 µM | [44] > 100 µM | [45] > 100 µM | [46] > 100 µM | [47] > 100 µM | [48] > 100 µM | [49] > 100 µM | [50] > 100 µM | [51] > 100 µM | [52] > 100 µM
